Reference: ChEMBL document CHEMBL1201862, “PubChem BioAssay data set” (2004)
The source made the active and inactive calls.

Tests used:
[1] = target: Type-1 angiotensin II receptor (Homo sapiens, UniProt P30556); test: agonist activity at AGTR1 – cell-based, uHTS hits, selectivity assay for APJ receptor agonist project, dose response (AID 488865); assay type: functional;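 note: beta-arrestin recruitment to AT1 measured by enzyme fragment complementation luminescence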
[2] = target: T1, Voltage-gated N-type calcium channel alpha-1B subunit/Amyloid beta A4 precursor protein-binding family A member 1 (Homo sapiens, UniProt Q00975+Q02410); assay type: protein assay
T1 sequence (Q00975 whole entry): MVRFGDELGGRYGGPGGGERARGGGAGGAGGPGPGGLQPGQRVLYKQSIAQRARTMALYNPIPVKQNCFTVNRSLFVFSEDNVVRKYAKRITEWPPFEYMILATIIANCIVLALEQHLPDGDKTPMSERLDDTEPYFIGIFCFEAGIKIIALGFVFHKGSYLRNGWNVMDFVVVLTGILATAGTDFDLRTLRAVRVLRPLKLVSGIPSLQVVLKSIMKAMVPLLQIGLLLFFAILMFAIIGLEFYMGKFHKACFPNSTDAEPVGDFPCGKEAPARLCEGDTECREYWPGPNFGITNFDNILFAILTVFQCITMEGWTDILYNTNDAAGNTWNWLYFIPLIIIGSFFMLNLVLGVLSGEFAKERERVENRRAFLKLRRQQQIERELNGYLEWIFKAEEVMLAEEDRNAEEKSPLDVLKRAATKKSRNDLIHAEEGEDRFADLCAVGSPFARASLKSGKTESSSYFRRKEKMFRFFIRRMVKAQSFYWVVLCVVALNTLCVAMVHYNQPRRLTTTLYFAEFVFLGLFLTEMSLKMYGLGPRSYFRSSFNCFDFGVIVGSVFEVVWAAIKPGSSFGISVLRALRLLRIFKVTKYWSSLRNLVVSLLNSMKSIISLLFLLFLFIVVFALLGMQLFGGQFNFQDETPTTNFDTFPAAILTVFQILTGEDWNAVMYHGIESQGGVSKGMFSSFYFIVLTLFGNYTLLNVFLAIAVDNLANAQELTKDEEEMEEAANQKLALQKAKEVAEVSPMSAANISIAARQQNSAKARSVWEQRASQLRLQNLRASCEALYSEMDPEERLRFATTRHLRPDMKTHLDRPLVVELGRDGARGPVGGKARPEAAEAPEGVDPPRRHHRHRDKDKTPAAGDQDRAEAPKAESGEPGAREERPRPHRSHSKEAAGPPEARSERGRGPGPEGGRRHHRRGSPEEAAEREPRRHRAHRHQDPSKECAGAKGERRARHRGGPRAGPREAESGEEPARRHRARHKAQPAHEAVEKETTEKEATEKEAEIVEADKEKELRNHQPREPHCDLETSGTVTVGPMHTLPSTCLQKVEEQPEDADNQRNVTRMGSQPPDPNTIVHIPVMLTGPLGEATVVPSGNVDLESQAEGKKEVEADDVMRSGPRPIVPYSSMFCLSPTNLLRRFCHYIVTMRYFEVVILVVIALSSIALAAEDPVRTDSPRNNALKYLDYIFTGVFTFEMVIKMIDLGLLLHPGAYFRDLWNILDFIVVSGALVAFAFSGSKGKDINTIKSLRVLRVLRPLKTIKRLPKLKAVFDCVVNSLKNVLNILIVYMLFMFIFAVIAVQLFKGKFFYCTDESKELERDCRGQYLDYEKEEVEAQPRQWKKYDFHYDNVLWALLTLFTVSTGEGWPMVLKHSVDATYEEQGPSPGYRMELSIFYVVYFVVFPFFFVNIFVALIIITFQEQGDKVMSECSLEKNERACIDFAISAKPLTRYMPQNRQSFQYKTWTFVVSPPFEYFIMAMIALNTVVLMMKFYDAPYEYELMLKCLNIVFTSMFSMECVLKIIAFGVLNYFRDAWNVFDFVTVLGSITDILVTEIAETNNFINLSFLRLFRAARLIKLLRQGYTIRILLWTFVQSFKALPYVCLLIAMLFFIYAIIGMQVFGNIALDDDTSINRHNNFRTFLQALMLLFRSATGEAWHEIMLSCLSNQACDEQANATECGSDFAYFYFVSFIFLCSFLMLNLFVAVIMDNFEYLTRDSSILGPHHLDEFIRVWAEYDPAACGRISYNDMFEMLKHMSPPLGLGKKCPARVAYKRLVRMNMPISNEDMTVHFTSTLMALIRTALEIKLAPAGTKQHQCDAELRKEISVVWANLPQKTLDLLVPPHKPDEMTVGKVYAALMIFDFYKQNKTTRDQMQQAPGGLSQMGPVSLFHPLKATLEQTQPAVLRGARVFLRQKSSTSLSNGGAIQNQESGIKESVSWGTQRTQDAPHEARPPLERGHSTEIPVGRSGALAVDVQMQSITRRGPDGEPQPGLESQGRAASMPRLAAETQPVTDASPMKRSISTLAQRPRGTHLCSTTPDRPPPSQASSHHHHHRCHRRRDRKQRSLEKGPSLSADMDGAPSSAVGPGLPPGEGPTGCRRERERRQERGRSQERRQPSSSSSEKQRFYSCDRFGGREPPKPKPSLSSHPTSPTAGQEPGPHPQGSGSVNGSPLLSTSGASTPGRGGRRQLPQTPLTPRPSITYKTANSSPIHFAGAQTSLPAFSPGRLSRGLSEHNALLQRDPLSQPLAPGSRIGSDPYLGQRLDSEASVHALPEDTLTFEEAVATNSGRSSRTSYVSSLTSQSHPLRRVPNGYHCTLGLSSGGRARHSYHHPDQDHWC
T1 sequence (Q02410 whole entry): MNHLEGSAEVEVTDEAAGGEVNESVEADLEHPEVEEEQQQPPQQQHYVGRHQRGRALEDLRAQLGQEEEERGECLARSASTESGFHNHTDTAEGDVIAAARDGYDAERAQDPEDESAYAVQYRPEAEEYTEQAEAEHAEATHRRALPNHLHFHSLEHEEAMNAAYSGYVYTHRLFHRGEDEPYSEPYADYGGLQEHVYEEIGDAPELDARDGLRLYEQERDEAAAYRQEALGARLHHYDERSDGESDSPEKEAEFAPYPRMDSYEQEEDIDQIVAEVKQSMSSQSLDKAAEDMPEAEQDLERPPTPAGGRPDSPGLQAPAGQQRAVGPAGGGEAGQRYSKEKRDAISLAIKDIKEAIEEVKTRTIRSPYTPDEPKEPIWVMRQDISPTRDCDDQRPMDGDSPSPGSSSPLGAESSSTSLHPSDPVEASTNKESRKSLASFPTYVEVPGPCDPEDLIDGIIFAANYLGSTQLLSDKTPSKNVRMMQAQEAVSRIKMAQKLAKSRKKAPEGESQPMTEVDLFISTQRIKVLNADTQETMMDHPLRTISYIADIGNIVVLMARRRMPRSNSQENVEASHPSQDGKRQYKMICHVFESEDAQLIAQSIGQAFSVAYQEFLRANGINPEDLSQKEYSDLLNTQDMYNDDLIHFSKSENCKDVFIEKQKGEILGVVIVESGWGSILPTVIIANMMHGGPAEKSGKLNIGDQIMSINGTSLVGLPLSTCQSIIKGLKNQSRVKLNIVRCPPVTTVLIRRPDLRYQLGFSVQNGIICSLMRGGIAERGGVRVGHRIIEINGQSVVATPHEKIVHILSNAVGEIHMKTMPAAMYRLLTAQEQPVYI

[3] = target: DNA dC->dU-editing enzyme APOBEC-3G (Homo sapiens, UniProt Q9HC16); test: Dose Response confirmation of small molecule APOBEC3G DNA Deaminase Inhibitors via a fluorescence-based single-stranded DNA deaminase assay. [Related pubchem assays (depositor defined):AID493012, AID493028]; assay type: functional
[4] = target: T2, Phosphomannomutase 2 (Homo sapiens, UniProt O15305); test: Counter screen SAR assay for PMM2 inhibitors via a fluorescence intensity assay. [Related pubchem assays (depositor defined):AID1545, AID1574]
T2 sequence (O15305 whole entry): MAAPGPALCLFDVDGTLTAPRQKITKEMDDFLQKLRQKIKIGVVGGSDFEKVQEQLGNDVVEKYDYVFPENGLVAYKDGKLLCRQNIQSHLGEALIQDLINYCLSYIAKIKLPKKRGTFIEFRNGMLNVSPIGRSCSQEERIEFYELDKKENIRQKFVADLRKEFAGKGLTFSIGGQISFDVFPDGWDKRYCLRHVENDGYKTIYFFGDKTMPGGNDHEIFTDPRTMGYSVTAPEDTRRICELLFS

[5] = target: T3, Runt-related transcription factor 1/Core-binding factor subunit beta (Homo sapiens, UniProt Q01196+Q13951); test: Runt domain/CBFb-SMMHC interaction disruptors – biochemical, TR-FRET (AID 1438); assay type: protein assay
T3 sequence (Q01196 whole entry, the tested form may be a part): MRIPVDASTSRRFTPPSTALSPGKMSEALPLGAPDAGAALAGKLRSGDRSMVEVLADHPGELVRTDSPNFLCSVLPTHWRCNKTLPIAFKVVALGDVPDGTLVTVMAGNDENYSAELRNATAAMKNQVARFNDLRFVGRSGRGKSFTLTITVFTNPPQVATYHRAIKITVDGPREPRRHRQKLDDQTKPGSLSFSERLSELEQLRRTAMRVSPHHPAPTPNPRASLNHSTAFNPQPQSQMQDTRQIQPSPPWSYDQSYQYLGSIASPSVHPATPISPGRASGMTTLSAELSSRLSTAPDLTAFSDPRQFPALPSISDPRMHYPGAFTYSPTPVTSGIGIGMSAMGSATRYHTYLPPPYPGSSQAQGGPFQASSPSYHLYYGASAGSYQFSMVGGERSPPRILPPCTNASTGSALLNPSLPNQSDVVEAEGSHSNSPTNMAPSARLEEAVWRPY
T3 sequence (Q13951 whole entry, the tested form may be a part): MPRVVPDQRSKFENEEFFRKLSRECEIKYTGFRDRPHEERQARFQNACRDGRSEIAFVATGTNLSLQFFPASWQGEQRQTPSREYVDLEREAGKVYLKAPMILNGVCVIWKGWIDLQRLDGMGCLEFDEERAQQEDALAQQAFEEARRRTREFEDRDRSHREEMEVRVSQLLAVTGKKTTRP

[6] = target: T4, Mannose-6-phosphate isomerase (Homo sapiens, UniProt P34949); test: phosphomannose isomerase inhibition – biochemical, fluorescence intensity, confirmation (AID 1535)
T4 sequence (P34949 whole entry): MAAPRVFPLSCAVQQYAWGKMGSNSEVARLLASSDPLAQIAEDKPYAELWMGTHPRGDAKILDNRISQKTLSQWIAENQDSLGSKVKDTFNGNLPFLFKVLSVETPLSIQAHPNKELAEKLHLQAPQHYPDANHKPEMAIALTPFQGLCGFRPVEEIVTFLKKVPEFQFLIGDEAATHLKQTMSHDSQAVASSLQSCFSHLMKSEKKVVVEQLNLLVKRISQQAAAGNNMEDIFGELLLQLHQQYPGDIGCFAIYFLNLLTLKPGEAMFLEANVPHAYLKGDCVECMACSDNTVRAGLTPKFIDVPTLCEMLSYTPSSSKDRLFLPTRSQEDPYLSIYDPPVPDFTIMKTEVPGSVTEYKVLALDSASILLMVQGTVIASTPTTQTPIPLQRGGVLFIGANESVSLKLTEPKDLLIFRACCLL

[7] = target: T4, Mannose-6-phosphate isomerase; test: MPI inhibition at elevated mannose 6-phosphate – biochemical, fluorescence intensity, high mannose 6-phosphate, primary screen (AID 1220)
[8] = target: T3, Runt-related transcription factor 1/Core-binding factor subunit beta; test: disruptors of Runt domain/CBFb-SMMHC interaction – biochemical, FRET, Cerulean-Runt, Venus-CBFb-SMMHC, uHTS, […] (AID 1434); assay type: protein assay
[9] = target: Glucose-6-phosphate 1-dehydrogenase (Homo sapiens, UniProt P11413); test: inhibition of Homo sapiens G6PD, dose series – biochemical, fluorescence, selectivity assay for P. falciparum G6PD inhibitor project, dose response (AID 504792); assay type: functional
[10] = target: DNA dC->dU-editing enzyme APOBEC-3A (Homo sapiens, UniProt P31941); test: A3A deaminase inhibition for selectivity – biochemical, dose response (AID 504722); assay type: functional
[11] = target: T1, Voltage-gated N-type calcium channel alpha-1B subunit/Amyloid beta A4 precursor protein-binding family A member 1; assay type: protein assay; remark: listed apart in the source
[12] = target: T5, G-protein coupled receptor 35 (Homo sapiens, UniProt Q9HC97); test: SAR analysis of Antagonists of the GPR35 Receptor using an Image-Based Assay - Set 3. [Related pubchem assays (depositor defined):AID2013, AID2026]; assay type: functional
T5 sequence (Q9HC97 whole entry): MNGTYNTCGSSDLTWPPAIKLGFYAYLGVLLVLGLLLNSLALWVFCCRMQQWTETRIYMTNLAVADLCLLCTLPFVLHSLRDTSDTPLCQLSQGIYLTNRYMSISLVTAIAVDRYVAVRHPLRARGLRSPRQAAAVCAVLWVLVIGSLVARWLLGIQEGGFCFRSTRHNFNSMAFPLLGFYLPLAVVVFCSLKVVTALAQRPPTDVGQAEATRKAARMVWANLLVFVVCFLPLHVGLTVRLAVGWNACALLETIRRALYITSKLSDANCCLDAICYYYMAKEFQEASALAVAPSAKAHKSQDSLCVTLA

[13] = target: T6, G-protein coupled receptor 55 (Homo sapiens, UniProt Q9Y2T6); test: blockade of LPI-induced GPR55 arrestin translocation – imaging, U2OS, beta-arrestin-GFP, LPI agonist, set 2, SAR follow-up (AID 2820); assay type: functional
T6 sequence (Q9Y2T6 whole entry): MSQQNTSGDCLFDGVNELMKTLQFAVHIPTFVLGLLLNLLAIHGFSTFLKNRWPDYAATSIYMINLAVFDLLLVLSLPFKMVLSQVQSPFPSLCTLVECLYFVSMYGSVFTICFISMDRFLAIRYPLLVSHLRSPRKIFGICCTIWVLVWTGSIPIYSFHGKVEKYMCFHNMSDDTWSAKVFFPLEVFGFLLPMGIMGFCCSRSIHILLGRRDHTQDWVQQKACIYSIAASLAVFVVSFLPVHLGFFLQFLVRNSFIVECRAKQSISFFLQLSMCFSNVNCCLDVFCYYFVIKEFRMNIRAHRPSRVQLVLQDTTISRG

[14] = target: T7, Cannabinoid receptor 2 (Homo sapiens, UniProt P34972); test: SAR analysis of agonists of the Cannabinoid Receptor 2 using an Image-Based Assay. [Related pubchem assays (depositor defined):AID2013, AID2026]; assay type: functional
[15] = target: T6, G-protein coupled receptor 55; test: inhibition of LPI-stimulated GPR55 beta-arrestin translocation – imaging, U2OS, beta-arrestin-GFP, LPI agonist, primary screen (AID 2013); assay type: functional;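 note: antagonist potency measured as reduced agonist-driven arrestin aggregation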
[16] = target: T5, G-protein coupled receptor 35; test: SAR analysis of Agonists of the GPR35 Receptor using an Image-Based Assay - Set 2. [Related pubchem assays (depositor defined):AID2013, AID2026]; assay type: functional
[17] = target: T8, Cannabinoid receptor 1 (Homo sapiens, UniProt P21554); test: SAR analysis of agonists of the Cannabinoid Receptor 1 using an Image-Based Assay - Set 2. [Related pubchem assays (depositor defined):AID2013, AID2026]; assay type: functional
T8 sequence (P21554 whole entry): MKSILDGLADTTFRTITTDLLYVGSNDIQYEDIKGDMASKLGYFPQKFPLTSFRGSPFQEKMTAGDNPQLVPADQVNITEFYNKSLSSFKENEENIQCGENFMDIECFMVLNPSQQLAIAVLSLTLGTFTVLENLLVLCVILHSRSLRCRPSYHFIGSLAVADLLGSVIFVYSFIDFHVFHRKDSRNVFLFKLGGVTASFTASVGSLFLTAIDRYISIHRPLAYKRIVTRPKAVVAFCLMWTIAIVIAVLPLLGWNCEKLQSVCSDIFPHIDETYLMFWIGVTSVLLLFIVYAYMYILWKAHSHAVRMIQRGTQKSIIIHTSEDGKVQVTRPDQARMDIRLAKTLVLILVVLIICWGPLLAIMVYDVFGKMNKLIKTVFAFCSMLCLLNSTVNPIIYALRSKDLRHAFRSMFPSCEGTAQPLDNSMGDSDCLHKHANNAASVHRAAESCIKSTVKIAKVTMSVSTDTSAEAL

[18] = target: T7, Cannabinoid receptor 2; test: SAR analysis of antagonists of the Cannabinoid Receptor 2 using an Image-Based Assay. [Related pubchem assays (depositor defined):AID2013, AID2026]; assay type: functional
[19] = target: T8, Cannabinoid receptor 1; test: SAR analysis of antagonists of the Cannabinoid Receptor 1 using an Image-Based Assay - Set 2. [Related pubchem assays (depositor defined):AID2013, AID2026]; assay type: functional

SMILES: CCOC(=O)C1=C(Cn2cnc3ccccc32)NC(=O)NC1c1cc(C)ccc1C (centres undefined)
- EC50 [1]: > 100 µM (inactive)

SMILES: CCOC(=O)Cc1csc(-n2sc3ccccc3c2=O)n1
- IC50 [2]: 1.15 µM (active)
- IC50 [3]: 12.6 µM (active)
- IC50 [4]: > 100 µM (inactive)
- IC50 [5]: 8.58 µM (active)
- IC50 [6]: > 50 µM (inactive)
- IC50 [7]: 23.5 µM (active)
- IC50 [8]: 5.4 µM (active)
- IC50 [9]: 21.6 µM (inactive)
- IC50 [10]: > 100 µM (inactive)
- IC50 [11]: > 50 µM (inactive)

SMILES: CCCCC1(Cc2cccc([N+](=O)[O-])c2)C(=O)N(c2ccccc2)N(c2ccccc2)C1=O
- IC50 [12]: > 32 µM (inactive)
- IC50 [13]: 0.577 µM (active)
- EC50 [14]: > 32 µM (inactive)
- IC50 [15]: 0.552 µM (active)
- EC50 [16]: > 32 µM (inactive)
- EC50 [17]: > 32 µM (inactive)
- IC50 [18]: > 32 µM (inactive)
- IC50 [19]: 11 µM (inactive)
